Patent US6647980B1, “Method for administration of active substances to the olfactory region” (priority 1997, dated 2003)

Experiment: Dynamic viscosity, Brookfield Digital Viscometer
Format: physicochemical
Conditions: dye preparation
Description: The viscosity of the preparations were determined by means of a Brookfield Digital Viscometer, model DV-I+, version 2.0, at 25° after stabilisation for 30 min.

brilliant blue dye
Viscosity (cP) (NaCMC conc. 0 (water)): 1 (water) cP | Viscosity (cP) (NaCMC conc. 0.2 (w/v), with Tween 40 and methyl paraoxybenzoate): 22.0 cP | Viscosity (cP) (NaCMC conc. 0.5 (w/v), with Tween 40 and methyl paraoxybenzoate): 85.2 cP
